Marks after values point to notes of the source that are not given here.
Experiments:
OCTs 1–3 = system: OCTs 1–3; parameters: method as in Sala-Rabanal et al. (2013); conditions: rodent orthologues, ref Sala-Rabanal et al. (2013), cited from earlier work
OCT2 = biological target: T1, OCT2 (Homo sapiens, UniProt O15244); parameters: method as in Higashi et al. (2014); conditions: ref Higashi et al. (2014); cited from earlier work
T1 sequence (O15244 1-555): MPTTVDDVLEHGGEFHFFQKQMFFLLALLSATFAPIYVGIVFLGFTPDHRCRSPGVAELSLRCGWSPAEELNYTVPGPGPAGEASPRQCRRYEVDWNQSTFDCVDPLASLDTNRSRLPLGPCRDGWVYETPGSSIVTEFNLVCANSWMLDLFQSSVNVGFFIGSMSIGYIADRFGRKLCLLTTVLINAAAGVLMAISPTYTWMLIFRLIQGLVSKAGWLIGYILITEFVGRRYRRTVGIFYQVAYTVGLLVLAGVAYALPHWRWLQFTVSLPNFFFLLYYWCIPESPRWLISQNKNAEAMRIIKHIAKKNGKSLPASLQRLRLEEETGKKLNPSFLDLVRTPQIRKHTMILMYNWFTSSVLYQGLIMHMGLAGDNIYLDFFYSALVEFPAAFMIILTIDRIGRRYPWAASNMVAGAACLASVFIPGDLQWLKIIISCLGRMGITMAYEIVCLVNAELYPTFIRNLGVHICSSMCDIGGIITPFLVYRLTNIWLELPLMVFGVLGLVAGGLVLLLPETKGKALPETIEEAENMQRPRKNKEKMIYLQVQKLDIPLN

OCT1 (SLC22A1) = biological target: T2, OCT1 (SLC22A1) (Homo sapiens, UniProt O15245); experiment: Cellular uptake into OCT1-overexpressing HEK293 cells vs EV control cells (HPLC-MS/MS); conditions: for uptake ratio OCT1 (transporter-overexpressing cells over EV control cells): mean (±SD, N): 2.5 μM substrate (§), 2 min, HEK293
T2 sequence (O15245 1-554): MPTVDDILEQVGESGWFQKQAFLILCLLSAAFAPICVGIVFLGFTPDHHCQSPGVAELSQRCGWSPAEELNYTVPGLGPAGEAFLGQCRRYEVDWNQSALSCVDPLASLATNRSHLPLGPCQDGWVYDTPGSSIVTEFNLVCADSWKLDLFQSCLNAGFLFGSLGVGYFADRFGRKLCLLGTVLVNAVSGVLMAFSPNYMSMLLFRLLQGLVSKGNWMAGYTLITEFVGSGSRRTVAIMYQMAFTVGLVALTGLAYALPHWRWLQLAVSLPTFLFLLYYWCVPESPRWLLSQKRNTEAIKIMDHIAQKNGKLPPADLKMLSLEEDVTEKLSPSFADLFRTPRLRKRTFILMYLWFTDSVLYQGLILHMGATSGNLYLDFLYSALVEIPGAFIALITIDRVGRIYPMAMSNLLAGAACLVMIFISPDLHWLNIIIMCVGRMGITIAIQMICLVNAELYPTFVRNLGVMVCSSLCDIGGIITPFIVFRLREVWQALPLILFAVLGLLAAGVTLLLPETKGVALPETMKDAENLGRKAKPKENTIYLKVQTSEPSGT

OCT2 (SLC22A2) [1] = biological target: T3, OCT2 (SLC22A2) (Homo sapiens, UniProt O15244); experiment: Cellular uptake into OCT2-overexpressing HEK293 cells vs EV control cells (HPLC-MS/MS); conditions: for uptake ratio OCT2 (transporter-overexpressing cells over EV control cells): mean (±SD, N): 2.5 μM substrate (§), 2 min, HEK293; for K m (±SEM) / v max (±SEM): OCT2, net uptake, Michaelis–Menten; for higher v max of one enantiomer over the other, OCT2: label = enantiomer with higher v max
T3 sequence (O15244 1-555): T1 sequence (O15244 1-555)

OCT3 (SLC22A3) = biological target: T4, OCT3 (SLC22A3) (Homo sapiens, UniProt O75751); experiment: Cellular uptake into OCT3-overexpressing HEK293 cells vs EV control cells (HPLC-MS/MS); conditions: for uptake ratio OCT3 (transporter-overexpressing cells over EV control cells): mean (±SD, N): 2.5 μM substrate (§), 2 min, HEK293; for stereoselectivity OCT3 (uptake ratio of the more strongly transported enantiomer divided by that of the other): label = favoured enantiomer
T4 sequence (O75751 1-556): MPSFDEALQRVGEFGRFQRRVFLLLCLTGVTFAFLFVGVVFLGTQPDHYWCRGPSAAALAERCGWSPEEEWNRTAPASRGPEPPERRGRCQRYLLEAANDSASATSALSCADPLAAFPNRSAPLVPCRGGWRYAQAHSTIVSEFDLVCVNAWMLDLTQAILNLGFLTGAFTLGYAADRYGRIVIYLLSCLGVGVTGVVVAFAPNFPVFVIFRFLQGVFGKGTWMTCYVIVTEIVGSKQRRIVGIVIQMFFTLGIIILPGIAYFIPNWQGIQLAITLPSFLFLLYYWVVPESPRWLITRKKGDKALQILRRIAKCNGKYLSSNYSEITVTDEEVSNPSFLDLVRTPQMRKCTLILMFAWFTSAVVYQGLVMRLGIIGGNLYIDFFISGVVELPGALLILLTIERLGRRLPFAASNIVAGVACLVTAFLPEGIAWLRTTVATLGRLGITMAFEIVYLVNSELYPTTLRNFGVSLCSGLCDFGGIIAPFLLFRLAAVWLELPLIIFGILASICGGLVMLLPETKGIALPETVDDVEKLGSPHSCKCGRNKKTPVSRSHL

MATE1 (SLC47A1) [2] = biological target: T5, MATE1 (SLC47A1) (Homo sapiens, UniProt Q96FL8); experiment: Cellular uptake into MATE1-overexpressing HEK293 cells vs EV control cells (HPLC-MS/MS); conditions: for uptake ratio MATE1 (transporter-overexpressing cells over EV control cells): mean (±SD, N): 2.5 μM substrate, 1 min, 30 mM NH4Cl preincubation, HEK293
T5 sequence (Q96FL8 1-570): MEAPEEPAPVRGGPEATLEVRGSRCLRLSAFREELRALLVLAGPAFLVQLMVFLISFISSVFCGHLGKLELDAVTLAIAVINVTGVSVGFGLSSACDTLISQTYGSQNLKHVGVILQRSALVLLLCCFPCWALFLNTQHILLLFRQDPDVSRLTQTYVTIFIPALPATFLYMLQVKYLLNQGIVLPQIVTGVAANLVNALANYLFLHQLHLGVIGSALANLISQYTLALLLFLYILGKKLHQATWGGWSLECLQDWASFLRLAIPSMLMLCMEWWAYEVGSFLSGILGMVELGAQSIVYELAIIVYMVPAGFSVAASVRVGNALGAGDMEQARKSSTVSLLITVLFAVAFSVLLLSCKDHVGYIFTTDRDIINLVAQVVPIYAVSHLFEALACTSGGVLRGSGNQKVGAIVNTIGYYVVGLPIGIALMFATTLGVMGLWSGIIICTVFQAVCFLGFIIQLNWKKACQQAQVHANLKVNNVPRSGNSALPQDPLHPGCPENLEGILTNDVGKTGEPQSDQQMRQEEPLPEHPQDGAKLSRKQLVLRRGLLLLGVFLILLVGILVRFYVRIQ

MATE2-K (SLC47A2) [3] = biological target: T6, MATE2-K (SLC47A2) (Homo sapiens, UniProt Q86VL8); experiment: Cellular uptake into MATE2-K-overexpressing HEK293 cells vs EV control cells (HPLC-MS/MS); conditions: for uptake ratio MATE2K (transporter-overexpressing cells over EV control cells): mean (±SD, N): 2.5 μM substrate, 1 min, 30 mM NH4Cl preincubation, HEK293
OCT2 (SLC22A2) [4] = biological target: T3, OCT2 (SLC22A2); experiment: in vitro; conditions: pH 7.4
MATE2-K (SLC47A2) [5] = biological target: T6, MATE2-K (SLC47A2); experiment: in vitro; conditions: pH 7.4
MATE1 (SLC47A1) [6] = biological target: T5, MATE1 (SLC47A1); experiment: in vitro; conditions: pH 7.4
[7] = uptake ratio ≥2 = notable transport
[8] = listed as (S)-(+)-2-amino-1-Pentanol

T6 sequence (Q86VL8 1-566 isoform Q86VL8-3): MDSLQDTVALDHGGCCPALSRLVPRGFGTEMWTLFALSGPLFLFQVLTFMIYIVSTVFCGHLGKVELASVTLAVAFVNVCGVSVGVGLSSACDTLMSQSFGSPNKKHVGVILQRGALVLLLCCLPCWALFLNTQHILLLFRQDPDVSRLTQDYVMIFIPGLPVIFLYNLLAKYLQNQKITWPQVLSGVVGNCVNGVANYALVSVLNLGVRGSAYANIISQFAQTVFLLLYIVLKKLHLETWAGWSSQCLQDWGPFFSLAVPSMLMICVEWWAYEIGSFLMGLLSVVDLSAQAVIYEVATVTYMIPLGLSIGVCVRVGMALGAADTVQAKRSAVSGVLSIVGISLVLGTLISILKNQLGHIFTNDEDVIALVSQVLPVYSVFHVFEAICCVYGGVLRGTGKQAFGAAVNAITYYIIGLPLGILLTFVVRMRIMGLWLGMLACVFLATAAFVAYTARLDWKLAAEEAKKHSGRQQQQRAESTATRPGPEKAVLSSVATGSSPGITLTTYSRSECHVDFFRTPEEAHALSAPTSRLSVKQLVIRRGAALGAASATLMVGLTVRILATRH

NCCCCNCCCN [spermidine]
K m of spermidine transport (OCTs 1–3; OCT-expressing oocytes): 1000 µM | increase in spermidine uptake by OCT-expressing oocytes compared to non-injected oocytes (OCTs 1–3): up to 3 fold | K m of spermidine transport (OCT2): 6760 µM | substrate activity at OCT1 (in words) (OCT1 (SLC22A1); [7]): did not show any substrate activity | substrate activity at OCT2 (in words) (OCT2 (SLC22A2) [1]; [7]): did not show any substrate activity | substrate activity at OCT3 (in words) (OCT3 (SLC22A3); [7]): did not show any substrate activity | substrate activity at MATE1 (in words) (MATE1 (SLC47A1) [2]; [7]): did not show any substrate activity | substrate activity at MATE2-K (in words) (MATE2-K (SLC47A2) [3]; [7]): did not show any substrate activity

CCC[C@H](N)CO [(S)-(+)-2-amino-1-pentanol]
selectivity ratio at 2 min (OCT2 (SLC22A2) [4]): 1.2 | uptake ratio OCT1 (transporter-overexpressing cells over EV control cells): mean (±SD, N) (OCT1 (SLC22A1)): 1.0 (0.3, 4) | uptake ratio OCT1 (transporter-overexpressing cells over EV control cells): mean (±SD, N) (OCT1 (SLC22A1); [8]): 1.0 | uptake ratio OCT2 (transporter-overexpressing cells over EV control cells): mean (±SD, N) (OCT2 (SLC22A2) [1]): 6.0 (1.7, 4) ^b | uptake ratio OCT2 (transporter-overexpressing cells over EV control cells): mean (±SD, N) (OCT2 (SLC22A2) [1]; [8]): 6.0 | K m (±SEM) (OCT2 (SLC22A2) [1]): 245 (±83) μM | v max (±SEM) (OCT2 (SLC22A2) [1]): 2342 (±290) ^a pmol/mg protein/min | K m (±SEM) (OCT2 (SLC22A2) [1]; listed as (S)-2-amino-1-pentanol): 245 µM | higher v max of one enantiomer over the other, OCT2 (OCT2 (SLC22A2) [1]): 1.6 fold | uptake ratio OCT3 (transporter-overexpressing cells over EV control cells): mean (±SD, N) (OCT3 (SLC22A3)): 1.1 (0.2, 4) | uptake ratio OCT3 (transporter-overexpressing cells over EV control cells): mean (±SD, N) (OCT3 (SLC22A3); [8]): 1.1 | stereoselectivity OCT3 (uptake ratio of the more strongly transported enantiomer divided by that of the other) (OCT3 (SLC22A3)): 1.1-fold for (S) | uptake ratio MATE1 (transporter-overexpressing cells over EV control cells): mean (±SD, N) (MATE1 (SLC47A1) [2]): 1.1 (0.1, 4) | uptake ratio MATE1 (transporter-overexpressing cells over EV control cells): mean (±SD, N) (MATE1 (SLC47A1) [2]; [8]): 1.1 | uptake ratio MATE2K (transporter-overexpressing cells over EV control cells): mean (±SD, N) (MATE2-K (SLC47A2) [3]): 1.5 (0.4, 4) | uptake ratio MATE2K (transporter-overexpressing cells over EV control cells): mean (±SD, N) (MATE2-K (SLC47A2) [3]; [8]): 1.5

CC(C)[C@H](N)CO [L-valinol]
selectivity ratio at 2 min (OCT2 (SLC22A2) [4]): 1.04 | selectivity ratio at 1 min (MATE2-K (SLC47A2) [5]): 1.5 | K m (±SEM) (OCT2 (SLC22A2) [1]): 362(±156) μM | v max (±SEM) (OCT2 (SLC22A2) [1]): 4970 (±967) pmol/mg protein/min | higher v max of one enantiomer over the other, OCT2 (OCT2 (SLC22A2) [1]): 2.0 fold | stereoselectivity OCT3 (uptake ratio of the more strongly transported enantiomer divided by that of the other) (OCT3 (SLC22A3)): 1.04-fold for (S)

CC(C)C[C@@H](N)CO [(R)-(−)-leucinol]
selectivity ratio at 1 min (MATE1 (SLC47A1) [6]): 1.1 | stereoselectivity OCT3 (uptake ratio of the more strongly transported enantiomer divided by that of the other) (OCT3 (SLC22A3)): 1.4-fold for (R)

CC(C)(C)[C@@H](N)CO [(R)-(−)-tert-leucinol]
selectivity ratio at 1 min (MATE1 (SLC47A1) [6]): 1.3 | selectivity ratio at 1 min (MATE2-K (SLC47A2) [5]): 1.5

— publication PMC12340637, “Transport of Small Aliphatic Amines by Polyspecific Solute Carriers: Deciphering Structure–Function Relationships” (ACS Pharmacology & Translational Science, 2025)
